# Target: T1, human FGFR4 (Homo sapiens, UniProt P22455)
# T1 construct: human FGFR4 cytoplasmic domain (460-802); GST (N); purchased Carna Biosciences 08-136
# Assay: FGFR4 enzymatic assay (HTRF KinEASE-TK)
# Assay type: biochemical
# Conditions: wild-type human FGFR4 cytoplasmic domain (460-802), GST-tag; 60 min preincubation at 25° C.; ATP 200 μM; read-out: Potency (IC50), FGFR4 enzymatic assay
# Protocol: The ability of compounds to inhibit human FGFR4 tyrosine kinase activities was determined using a commercially available HTRF® KinEASE™-TK kit (CISBIO, Cat #62TK0PEC) according to the manufacturer's protocol. Wild-type human FGFR4 cytoplasmic domain (460-802) with N-terminal GST-tag was purchased from Carna Biosciences (Carna, Cat #08-136) and used in the kinase enzymatic assay. This assay, run in a 384-well plate format, is a generic method for measuring tyrosine kinase activities using one substrate and a universal detection system. It involves two steps: (1) Enzymatic step: the biotin labeled TK Substrate is incubated with the kinase and then ATP is added to start the enzymatic reaction; during this step, FGFR4 will phosphorylate the TK Substrate-biotin. (2) Detection step: The TK-Antibody labeled with Eu^3+-Cryptate can recognize the phosphorylated TK Substrate-biotin. When the streptavidin-XL665 conjugate binds the biotin, a FRET signal will be detected. Briefly, human FGFR4 (0.25 μg/ml) in the enzymatic buffer solutions (250 mM HEPES, pH7.0, 0.1% NaN3, 0.05% BSA, 0.5 mM Orthovanadate) were mixed with various concentrations of the test compound (dissolved in 100% DMSO). These solutions were incubated for 60 min at 25° C., and subsequently a mixture of substrate peptide and ATP was added with the final peptide and ATP concentrations at 0.3 μM and 200 μM respectively. The final reaction mixture of enzyme-substrate-ATP-compound was incubated for 40 min at 37° C. Meanwhile the detection mixture containing the TK-antibody and Streptavidin-XL665 diluted in the detection buffer (50 mM HEPES, pH7.0, with additives) was prepared, and added to the reaction mixture at final concentrations of 25 nM and 18.5 nM respectively. After incubation for 60 min at 25° C., the FRET signal of the final solution was measured at 665 nm and 612 nm emissions on a TECAN Spark 10M instrument (TECAN). The percent (%) inhibition at each concentration of a compound was calculated relative to the FRET signal in the Max and Min control wells contained within each assay plate. The Max control wells contained enzyme and substrate as 0% inhibition, and the Min control wells only contained substrate without enzyme as 100% inhibition. The concentrations and percent inhibition values for a test compound are plotted and the concentration of the compound required to achieve 50% inhibition (IC50) was determined with a four-parameter logistic dose response equation. Dose-response curves were generated using Prism (GraphPad Software, La Jolla, CA, US) to calculate IC50 values for each compound tested.
# T1 sequence (P22455 460-802): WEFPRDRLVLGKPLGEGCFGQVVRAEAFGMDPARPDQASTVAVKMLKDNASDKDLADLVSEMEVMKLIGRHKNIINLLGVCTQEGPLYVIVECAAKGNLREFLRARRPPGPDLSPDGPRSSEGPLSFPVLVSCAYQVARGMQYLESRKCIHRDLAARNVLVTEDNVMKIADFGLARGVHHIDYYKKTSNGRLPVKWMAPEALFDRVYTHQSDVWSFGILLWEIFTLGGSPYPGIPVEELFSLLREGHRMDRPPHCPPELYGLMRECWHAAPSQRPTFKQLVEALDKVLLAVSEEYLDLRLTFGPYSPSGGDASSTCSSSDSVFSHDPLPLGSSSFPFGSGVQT
row,Structure (SMILES),IC50 [µM]
1,"COc1cc(OC)c(F)c(C2CCc3c(-c4c(NC(C)=O)cnn4C)n[nH]c3C2)c1F (single isomer, unassigned) [Compound S19-P1, N-(5-(6-(2,6-difluoro-3,5-dimethoxyphenyl)-4,5,6,7-tetrahydro-1H-indazol-3-yl)-1-methyl-1H-pyrazol-4-yl)acetamide]",> 0.1
2,"COc1cc(OC)c(F)c(C2CCc3c(-c4c(NC(C)=O)cnn4C)n[nH]c3C2)c1F (single isomer, unassigned) [Compound S19-P2, N-(5-(6-(2,6-difluoro-3,5-dimethoxyphenyl)-4,5,6,7-tetrahydro-1H-indazol-3-yl)-1-methyl-1H-pyrazol-4-yl)acetamide]",> 0.1
3,"CCC(=O)Nc1cnn(C)c1-c1n[nH]c2c1CCC(c1c(F)c(OC)cc(OC)c1F)C2 (single isomer, unassigned) [Compound S20-P1, N-(5-(6-(2,6-difluoro-3,5-dimethoxyphenyl)-4,5,6,7-tetrahydro-1H-indazol-3-yl)-1-methyl-1H-pyrazol-4-yl)propionamide]",> 0.1
4,"CCC(=O)Nc1cnn(C)c1-c1n[nH]c2c1CCC(c1c(F)c(OC)cc(OC)c1F)C2 (single isomer, unassigned) [Compound S20-P2, N-(5-(6-(2,6-difluoro-3,5-dimethoxyphenyl)-4,5,6,7-tetrahydro-1H-indazol-3-yl)-1-methyl-1H-pyrazol-4-yl)propionamide]",> 0.1
5,"C=C(F)C(=O)Nc1cnn(C)c1-c1n[nH]c2c1CCC(c1c(F)c(OC)cc(OC)c1F)C2 (single isomer, unassigned) [Compound S21-P1, N-(5-(6-(2,6-difluoro-3,5-dimethoxyphenyl)-4,5,6,7-tetrahydro-1H-indazol-3-yl)-1-methyl-1H-pyrazol-4-yl)-2-fluoroacrylamide]",> 0.1
6,"C=C(F)C(=O)Nc1cnn(C)c1-c1n[nH]c2c1CCC(c1c(F)c(OC)cc(OC)c1F)C2 (single isomer, unassigned) [Compound S21-P2, N-(5-(6-(2,6-difluoro-3,5-dimethoxyphenyl)-4,5,6,7-tetrahydro-1H-indazol-3-yl)-1-methyl-1H-pyrazol-4-yl)-2-fluoroacrylamide]",> 0.1

# The next lines start with the values.
row,IC50 [µM],Structure (SMILES)
1,> 0.1,"C=C(C)C(=O)Nc1cnn(C)c1-c1n[nH]c2c1CCC(c1c(Cl)c(OC)cc(OC)c1Cl)C2 (single isomer, unassigned) [Compound S2-P1, N-(5-(6-(2,6-dichloro-3,5-Dimethoxyphenyl)-4,5,6,7-tetrahydro-1H-indazol-3-yl)-1-methyl-1H-pyrazol-4-yl) Methacrylamide]"
2,> 0.1,"C=C(C)C(=O)Nc1cnn(C)c1-c1n[nH]c2c1CCC(c1c(Cl)c(OC)cc(OC)c1Cl)C2 (single isomer, unassigned) [Compound S2-P2, N-(5-(6-(2,6-dichloro-3,5-Dimethoxyphenyl)-4,5,6,7-tetrahydro-1H-indazol-3-yl)-1-methyl-1H-pyrazol-4-yl) Methacrylamide]"
3,> 0.1,"C=CC(=O)NC1CCOCC1c1n[nH]c2c1CC[C@H](c1c(Cl)c(OC)cc(OC)c1Cl)C2 (single isomer, unassigned) [Compound S7-P1]"
4,> 0.1,"C=CC(=O)NC1CCOCC1c1n[nH]c2c1CC[C@H](c1c(Cl)c(OC)cc(OC)c1Cl)C2 (single isomer, unassigned) [Compound S7-P2]"
5,> 0.1,"C=CC(=O)Nc1cnn(CC(F)(F)F)c1-c1n[nH]c2c1CCC(c1c(F)c(OC)cc(OC)c1F)C2 (single isomer, unassigned) [Compound S18-P1, N-(5-(6-(2,6-difluoro-3,5-dimethoxyphenyl)-4,5,6,7-tetrahydro-1H-indazol-3-yl)-1-(2,2,2-trifluoroethyl)-1H-pyrazol-4-yl)acrylamide]"
6,> 0.1,"C=CC(=O)Nc1cnn(CC(F)(F)F)c1-c1n[nH]c2c1CCC(c1c(F)c(OC)cc(OC)c1F)C2 (single isomer, unassigned) [Compound S18-P2, N-(5-(6-(2,6-difluoro-3,5-dimethoxyphenyl)-4,5,6,7-tetrahydro-1H-indazol-3-yl)-1-(2,2,2-trifluoroethyl)-1H-pyrazol-4-yl)acrylamide]"

# — patent US11976058B2, “Aromatic derivatives, preparation methods, and medical uses thereof” (Bioardis LLC, priority 2019, dated 2024)
